Structures are written as SMILES.

Test [1] has as its system HEK293 cells. Briefly: Preliminary screening as DNA vectors, GFP transfection of HEK293 cells. In kind it is cell-based. Particulars: HEK293 cells; lipid/DOPE liposome with 75 ng plasmid DNA (psin-EGFP-IRES-Puro); number of cells expressing GFP divided by total number of nuclei (Hoechst). In short, it runs like this: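 Lipid + DOPE liposomes (NaOAc, pH 5.6) complexed w/ 75 ng psin-EGFP-IRES-Puro, 30 min RT; added to 3-5×10^4 HEK293/well, 37° C. Hoechst 0.2 μg/mL at 20-24 h, imaged after further 20-24 h. Efficiency = GFP+ cells / total nuclei.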

Test [2] has as its system HEK293 cells. Briefly: Preliminary screening as mRNA vectors, EGFP mRNA transfection of HEK293 cells. The following applies: HEK293 cells, 96-well plates, EGFP mRNA 50 ng per well; percentage of GFP fluorescent cells relative to total number of cells (Hoechst). The test is classed as cell-based. In short, it runs like this: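 Each well of HEK293 cells received 50 ng of EGFP mRNA. Efficiency was expressed as percent GFP-expressing cells over Hoechst-defined total cell number.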

For the compound `CCCCCCCCCCCCCCSc1nc(NCC2CCN(C)CC2)nc(SCCCCCCCC)n1` [Compound S8S14D10], in the test with HEK293 cells [1], the “Absolute DNA transfection efficiency in HEK293 cells” value (shortened to “Absolute DNA transfection efficiency”) is reported as 41.1%. Further, in the test on HEK293 cells [2], the “Absolute mRNA transfection efficiency in HEK293 cells” value (“Absolute mRNA transfection efficiency” below) is listed as 60.5%.
Take `CCCCCCCCCCCCCCCSc1nc(NCCN(C)C)nc(SCCCCCCCC)n1` [Compound S8S15D1]: the “Absolute DNA transfection efficiency” value in the test on HEK293 cells [1] is 8.1%. The “Absolute mRNA transfection efficiency” value in the test with HEK293 cells [2] is listed as 0.4%.
In the same order, the values of `CCCCCCCCCCCCCCCSc1nc(NCCN2CCOCC2)nc(SCCCCCCCC)n1` [Compound S8S15D2] are 10.8% and 0.0%.
For `CCCCCCCCCCCCCCCSc1nc(NCCN2CCCC2)nc(SCCCCCCCC)n1` [Compound S8S15D3], in that order: 21.8% and 0.9%.
With `CCCCCCCCCCCCCCCSc1nc(NCCN2CCCCC2)nc(SCCCCCCCC)n1` [Compound S8S15D4], the “Absolute DNA transfection efficiency” value with HEK293 cells [1] stood at 11.2%. Further, the “Absolute mRNA transfection efficiency” value in the test with HEK293 cells [2] is listed as 2.6%.
For `CCCCCCCCCCCCCCCSc1nc(NCCN2CCN(C)CC2)nc(SCCCCCCCC)n1` [Compound S8S15D5], in that order: 31.2% and 40.0%.
For `CCCCCCCCCCCCCCCSc1nc(NCCCN(C)C)nc(SCCCCCCCC)n1` [Compound S8S15D6], in that order: 24.5% and 45.0%.
Consider `CCCCCCCCCCCCCCCSc1nc(NCCN(CC)CC)nc(SCCCCCCCC)n1` [Compound S8S15D7], for which the “Absolute DNA transfection efficiency” value with HEK293 cells [1] is reported as 13.8%. In the test on HEK293 cells [2], the “Absolute mRNA transfection efficiency” value is reported as 0.0%.
With `CCCCCCCCCCCCCCCSc1nc(NCCCN2CCOCC2)nc(SCCCCCCCC)n1` [Compound S8S15D8], the “Absolute DNA transfection efficiency” value with HEK293 cells [1] is 23.0%. In the test with HEK293 cells [2], the “Absolute mRNA transfection efficiency” value worked out at 8.0%.
In the same order, the values of `CCCCCCCCCCCCCCCSc1nc(NCCCN2CCN(C)CC2)nc(SCCCCCCCC)n1` [Compound S8S15D9] are 13.9% and 22.0%.
For the compound `CCCCCCCCCCCCCCCSc1nc(NCC2CCN(C)CC2)nc(SCCCCCCCC)n1` [Compound S8S15D10], the “Absolute DNA transfection efficiency” value in the test with HEK293 cells [1] amounted to 32.1%. For the same compound, the “Absolute mRNA transfection efficiency” value with HEK293 cells [2] is 64.0%.
For `CCCCCCCCCCCCCCCCSc1nc(NCCN(C)C)nc(SCCCCCCCC)n1` [Compound S8S16D1], in that order: 4.6% and 2.2%.
Take `CCCCCCCCCCCCCCCCSc1nc(NCCN2CCOCC2)nc(SCCCCCCCC)n1` [Compound S8S16D2]: the “Absolute DNA transfection efficiency” value in the test on HEK293 cells [1] is 15.7%. Also, the “Absolute mRNA transfection efficiency” value in the test on HEK293 cells [2] worked out at 0.2%.
In the same order, the values of `CCCCCCCCCCCCCCCCSc1nc(NCCN2CCCC2)nc(SCCCCCCCC)n1` [Compound S8S16D3] are 20.7% and 37.3%.
Regarding `CCCCCCCCCCCCCCCCSc1nc(NCCN2CCCCC2)nc(SCCCCCCCC)n1` [Compound S8S16D4], in the test on HEK293 cells [1], the “Absolute DNA transfection efficiency” value was determined as 10.2%. The “Absolute mRNA transfection efficiency” value in the test on HEK293 cells [2] stood at 2.1%.
Take `CCCCCCCCCCCCCCCCSc1nc(NCCN2CCN(C)CC2)nc(SCCCCCCCC)n1` [Compound S8S16D5]: the “Absolute DNA transfection efficiency” value in the test on HEK293 cells [1] stood at 3.7%. In the test with HEK293 cells [2], the “Absolute mRNA transfection efficiency” value is 20.5%.
With `CCCCCCCCCCCCCCCCSc1nc(NCCCN(C)C)nc(SCCCCCCCC)n1` [Compound S8S16D6], in the test on HEK293 cells [1], the “Absolute DNA transfection efficiency” value is 33.0%. For the same compound, the “Absolute mRNA transfection efficiency” value in the test with HEK293 cells [2] was determined as 61.0%.
With `CCCCCCCCCCCCCCCCSc1nc(NCCN(CC)CC)nc(SCCCCCCCC)n1` [Compound S8S16D7], the “Absolute DNA transfection efficiency” value with HEK293 cells [1] is given as 11.8%. The “Absolute mRNA transfection efficiency” value with HEK293 cells [2] is given as 0.5%.
Consider `CCCCCCCCCCCCCCCCSc1nc(NCCCN2CCOCC2)nc(SCCCCCCCC)n1` [Compound S8S16D8], for which the “Absolute DNA transfection efficiency” value with HEK293 cells [1] was 28.6%. For the same compound, in the test with HEK293 cells [2], the “Absolute mRNA transfection efficiency” value amounted to 4.4%.
Turning to `CCCCCCCCCCCCCCCCSc1nc(NCC2CCN(C)CC2)nc(SCCCCCCCC)n1` [Compound S8S16D10], the “Absolute DNA transfection efficiency” value in the test with HEK293 cells [1] amounted to 75.2%. The “Absolute mRNA transfection efficiency” value with HEK293 cells [2] amounted to 98.3%.
For `CCCCCCCCCCCCCCCCCCSc1nc(NCCN(C)C)nc(SCCCCCCCC)n1` [Compound S8S18D1], in that order: 7.6% and 3.9%.
As for `CCCCCCCCCCCCCCCCCCSc1nc(NCCN2CCOCC2)nc(SCCCCCCCC)n1` [Compound S8S18D2], the “Absolute DNA transfection efficiency” value with HEK293 cells [1] was determined as 0.9%. For the same compound, the “Absolute mRNA transfection efficiency” value in the test on HEK293 cells [2] was determined as 0.0%.
In the same order, the values of `CCCCCCCCCCCCCCCCCCSc1nc(NCCN2CCCC2)nc(SCCCCCCCC)n1` [Compound S8S18D3] are 14.3% and 61.5%.
Turning to `CCCCCCCCCCCCCCCCCCSc1nc(NCCN2CCCCC2)nc(SCCCCCCCC)n1` [Compound S8S18D4], the “Absolute DNA transfection efficiency” value in the test with HEK293 cells [1] is given as 15.8%. Also, the “Absolute mRNA transfection efficiency” value in the test on HEK293 cells [2] is given as 2.0%.
Take `CCCCCCCCCCCCCCCCCCSc1nc(NCCN2CCN(C)CC2)nc(SCCCCCCCC)n1` [Compound S8S18D5]: in the test with HEK293 cells [1], the “Absolute DNA transfection efficiency” value is recorded as 9.6%. Moreover, the “Absolute mRNA transfection efficiency” value in the test on HEK293 cells [2] stood at 27.5%.
As for `CCCCCCCCCCCCCCCCCCSc1nc(NCCCN(C)C)nc(SCCCCCCCC)n1` [Compound S8S18D6], the “Absolute DNA transfection efficiency” value in the test on HEK293 cells [1] stood at 8.2%. In addition, the “Absolute mRNA transfection efficiency” value in the test with HEK293 cells [2] is on record as 19.1%.
In the same order, the values of `CCCCCCCCCCCCCCCCCCSc1nc(NCCN(CC)CC)nc(SCCCCCCCC)n1` [Compound S8S18D7] are 9.2% and 3.8%.
For `CCCCCCCCCCCCCCCCCCSc1nc(NCCCN2CCOCC2)nc(SCCCCCCCC)n1` [Compound S8S18D8], the “Absolute DNA transfection efficiency” value in the test with HEK293 cells [1] is reported as 18.7%. For the same compound, the “Absolute mRNA transfection efficiency” value with HEK293 cells [2] was found to be 4.2%.
For `CCCCCCCCCCCCCCCCCCSc1nc(NCCCN2CCN(C)CC2)nc(SCCCCCCCC)n1` [Compound S8S18D9], in that order: 17.7% and 28.1%.
For `CCCCCCCCCCCCCCCCCCSc1nc(NCC2CCN(C)CC2)nc(SCCCCCCCC)n1` [Compound S8S18D10], in that order: 19.3% and 59.6%.
Turning to `CCCCCCCCCSc1nc(NCCN(C)C)nc(SCCCCCCCCC)n1` [Compound S9S9D1], the “Absolute DNA transfection efficiency” value in the test on HEK293 cells [1] is 12.9%. Moreover, in the test on HEK293 cells [2], the “Absolute mRNA transfection efficiency” value turned out to be 0.8%.
In the same order, the values of `CCCCCCCCCSc1nc(NCCN2CCOCC2)nc(SCCCCCCCCC)n1` [Compound S9S9D2] are 6.8% and 3.1%.
For `CCCCCCCCCSc1nc(NCCN2CCCC2)nc(SCCCCCCCCC)n1` [Compound S9S9D3], in the test on HEK293 cells [1], the “Absolute DNA transfection efficiency” value is 11.9%. Further, in the test on HEK293 cells [2], the “Absolute mRNA transfection efficiency” value is given as 4.5%.
In the same order, the values of `CCCCCCCCCSc1nc(NCCN2CCCCC2)nc(SCCCCCCCCC)n1` [Compound S9S9D4] are 14.5% and 2.1%.
Turning to `CCCCCCCCCSc1nc(NCCN2CCN(C)CC2)nc(SCCCCCCCCC)n1` [Compound S9S9D5], in the test with HEK293 cells [1], the “Absolute DNA transfection efficiency” value worked out at 12.5%. Also, the “Absolute mRNA transfection efficiency” value in the test on HEK293 cells [2] turned out to be 37.1%.
Consider `CCCCCCCCCSc1nc(NCCCN(C)C)nc(SCCCCCCCCC)n1` [Compound S9S9D6], for which the “Absolute DNA transfection efficiency” value in the test with HEK293 cells [1] was determined as 5.6%. Besides, the “Absolute mRNA transfection efficiency” value in the test with HEK293 cells [2] amounted to 33.0%.
In the same order, the values of `CCCCCCCCCSc1nc(NCCN(CC)CC)nc(SCCCCCCCCC)n1` [Compound S9S9D7] are 32.6% and 3.6%.
For `CCCCCCCCCSc1nc(NCCCN2CCOCC2)nc(SCCCCCCCCC)n1` [Compound S9S9D8], in that order: 19.1% and 14.8%.
In the same order, the values of `CCCCCCCCCSc1nc(NCCCN2CCN(C)CC2)nc(SCCCCCCCCC)n1` [Compound S9S9D9] are 19.3% and 19.3%.
As to `CCCCCCCCCSc1nc(NCC2CCN(C)CC2)nc(SCCCCCCCCC)n1` [Compound S9S9D10], the “Absolute DNA transfection efficiency” value in the test on HEK293 cells [1] was 11.3%. For the same compound, the “Absolute mRNA transfection efficiency” value in the test with HEK293 cells [2] is on record as 34.9%.
As for `CCCCCCCCCCSc1nc(NCCN(C)C)nc(SCCCCCCCCC)n1` [Compound S9S10D1], in the test with HEK293 cells [1], the “Absolute DNA transfection efficiency” value was 8.6%. For the same compound, the “Absolute mRNA transfection efficiency” value in the test with HEK293 cells [2] turned out to be 5.0%.
Turning to `CCCCCCCCCCSc1nc(NCCN2CCOCC2)nc(SCCCCCCCCC)n1` [Compound S9S10D2], the “Absolute DNA transfection efficiency” value in the test on HEK293 cells [1] is 10.7%. In the test on HEK293 cells [2], the “Absolute mRNA transfection efficiency” value is given as 2.5%.
In the same order, the values of `CCCCCCCCCCSc1nc(NCCN2CCCC2)nc(SCCCCCCCCC)n1` [Compound S9S10D3] are 10.3% and 70.1%.

The values are drawn from patent US20230123334A1, “AMINO LIPID COMPOUND, PREPARATION METHOD THEREFOR, AND APPLICATION THEREOF” (SHENZHEN SHENXIN BIOTECHNOLOGY CO., LTD., priority 2020, published 2023).
